In US7202280B2, “Methods for the treatment and prevention of pancreatitis and for induction of liver regeneration” (priority 2002, dated 2007):
Marks after values point to notes of the source that are not given here.

Legend:
[1] = tested on: syngenic and transgenic rats; assay: Hepatic SSAT activity and polyamine pools after partial hepatectomy; assay type: in vivo, rat
From the text: FIGS. 4a–4d. Hepatic polyamine pools in syngenic and transgenic rats after partial hepatectomy and methylspermidine. […] Three to five animals in each group. Me-spd, methylspermidine.
(§1) The production of transgenic Wistar rats (UKUR30) and mice (UKU181) harboring metallothionein-SSAT fusion gene (Suppola, S., Pietilä, M., Parkkinen, J. J., Korhonen, V. P., Alhonen, L., Halmekytö, M., Porter, C. W., and Jänne, J. (1999) Biochem. J. 338, 311–316) has been described earlier (Alhonen, L., Parkkinen, J. J., Keinänen, T., Sinervirta, R., Herzig, K. H., and Jänne, J. (2000) Proc. Natl. Acad. Sci. U.S.A. 97, 8290–8295; Lukkarinen, J., Gröhn, O., Sinervirta, R., Järvinen, A., Kauppinen, R. A., Jänne, J., and Alhonen, L. (1997) Stroke 28, 639–645). Partial hepatectomy was carried out according to the original method of Higgins and Anderson (Higgins, G. H., and Anderson, R. M. (1931) Arch. Pathol. 12, 186–202). Treatments before partial hepatectomy and the determination of DNA synthesis were carried out as in (Räsänen, T. L., Alhonen, L., Sinervirta, R., Keinänen, T., Herzig, K. H., Suppola, S., Khomutov, A. R., Vepsäläinen, J., and Jänne, J. (2002) J. Biol. Chem. 277, 39867–39872). […] The animals were sacrificed 24 h after the second MDL72527 injection and liver pieces were frozen in liquid nitrogen, homogenized in buffer (25 mM Tris-HCl pH 7.4, 0.1 mM EDTA, 1 mM DTT). An aliquot of the homogenates was used for the polyamine assays. The homogenates were centrifuged (at 13 000×g, for 30 min, at 4° C.) and the supernatants were used for the enzyme activity assays. The Institutional Animal Care and Use Committee of the University of Kuopio and by the Provincial Government approved animal experiments.
FIG. 4 depicts polyamine concentrations in syngenic and transgenic rats at 24 h after partial hepatectomy. […] This in all likelihood reflected the enhanced SSAT activity. […] In transgenic animals, the low spermidine pool was further decreased in response to the operation (FIG. 4c).
Liver regeneration could be restored by a prior administration of α-methylspermidine (Räsänen, T. L., Alhonen, L., Sinervirta, R., Keinänen, T., Herzig, K. H., Suppola, S., Khomutov, A. R., Vepsäläinen, J., and Jänne, J. (2002) J. Biol. Chem. 277, 39867–39872). FIG. 10. depicts thymidine incorporation in livers of transgenic rats before and 24 h after partial hepatectomy. […] Table 3 lists the liver pools of polyamines and their analogues before and after partial hepatectomy. […] The analogues were readily accumulated in the livers.

[2] = tested on: syngenic and transgenic rats; assay: Liver regeneration after partial hepatectomy (liver weight, PCNA labeling index, thymidine incorporation); assay type: in vivo, rat; conditions: for stimulation of DNA synthesis (thymidine incorporation): 25 mg/kg 20 h and 4 h before; for PCNA-positive hepatocytes: repeated experiment
Method: FIGS. 5a–5b. Liver weight (FIG. 5a) and PCNA labeling index (FIG. 5b) in syngenic and transgenic rats after partial hepatectomy and methylspermidine. Three to five animals in each group. *p<0.05, ***p<0.001 as compared with preoperative values. Md-spd, methylspermidine.
FIG. 10. Effect of polyamine analogues on thymidine incorporation in 24-h regenerating livers of SSAT transgenic rats. […] Ten μCi of tritiated thymidine was given 30 min before sacrifice. Three to four animals in each group.
as §1
PCNA was detected from formalin-fixed paraffin-embedded tissue section as described in detail earlier (Alhonen, L., Räsänen, T. L., Sinervirta, R., Parkkinen, J. J., Korhonen, V. P., Pietilä, M., and Jänne, J. (2002) Biochem. J. 362, 149–15).
PCNA was used as an indicator of proliferative activity during liver regeneration. Immunohistochemical detection of PCNA is a convenient and commonly used method to grade proliferative activity in various tissues. PCNA expression is closely correlated with the S-phase of the cell cycle (17). FIG. 5b depicts PCNA labeling index before partial hepatectomy and at 24 h postoperatively in syngenic and transgenic rats without or with methylspermidine treatment. In resting liver, only about 1% of the hepatocytes were PCNA-positive. In syngenic animals, the number of PCNA-positive cells increased sharply to over 30% at 24 h after the operation whereas in transgenic animals the number of positive cells remained at the low preoperative level at this time point (FIG. 5b). […] The experiment was repeated with other groups of syngenic and transgenic rats. In this experiment, PCNA-positive hepatocytes accounted for 0.5±0.1% in resting syngenic liver. The number of positive cells rose to 10.7±3.5% at 24 h postoperatively without the analogue (p<0.001) and to 9.8±1.5% with the analogue (p<0.001). The corresponding figures for the transgenic animals were 0.20±0.0 before the operation, 0.42±0.24% at 24 h postoperatively without methylspermidine and 25.9±4.9% with methylspermidine (p<0.001). It thus appears that the analogue completely reversed the proliferative block in transgenic livers.
Liver regeneration could be restored by a prior administration of α-methylspermidine (Räsänen, T. L., Alhonen, L., Sinervirta, R., Keinänen, T., Herzig, K. H., Suppola, S., Khomutov, A. R., Vepsäläinen, J., and Jänne, J. (2002) J. Biol. Chem. 277, 39867–39872). […]

[3] = transgenic rats, 24 h regenerating liver, 25 mg/kg 20 and 4 h before operation
[4] = SSAT transgenic rats, 24 h after partial hepatectomy
[5] = transgenic rats, 24 h regenerating liver, 5 mg/kg 20 and 4 h before operation

Structure (SMILES): CC(N)CCNCCCCNCCC(C)N (stereo not drawn) [bis-α-methylspermine, 1,12-dimethylspermine]
- Me2-Spm (liver) [1, 3]: 381 ± 124 pmoles/mg tissue wet weight
- Me-Spd (liver) [1, 3]: 154 ± 6 pmoles/mg tissue wet weight
- Put (liver) [1, 3]: 4400 ± 275^a pmoles/mg tissue wet weight
- Spd (liver) [1, 3]: 266 ± 55^a pmoles/mg tissue wet weight
- Spm (liver) [1, 3]: 6 ± 8^a pmoles/mg tissue wet weight
- stimulation of DNA synthesis (thymidine incorporation) [2, 4]: about 10 fold

Structure (SMILES): CC(N)CCNCCCCN (stereo not drawn) [α-methylspermidine, 1-methylspermidine]
- hepatic spermidine and spermine concentrations ([1]; 24 h after partial hepatectomy, 50 mg/kg 3 h before): little effect on hepatic spermidine and spermine concentrations
- accumulation of the analogue in liver ([1]; normal and transgenic rats, 50 mg/kg 3 h before partial hepatectomy): effectively accumulated in normal and transgenic liver
- hepatic putrescine pool ([1]; transgenic rats, 24 h after partial hepatectomy, 50 mg/kg 3 h before): strikingly increased in response to the analogue
- Me-Spd (liver) [1, 5]: 462 ± 41 pmoles/mg tissue wet weight
- Put (liver) [1, 5]: 4540 ± 690^a pmoles/mg tissue wet weight
- Spd (liver) [1, 5]: 183 ± 47^a pmoles/mg tissue wet weight
- Spm (liver) [1, 5]: 18 ± 5^a pmoles/mg tissue wet weight
- Me-Spd (liver) [1, 3]: 864 ± 166 pmoles/mg tissue wet weight
- Put (liver) [1, 3]: 3570 ± 596^a pmoles/mg tissue wet weight
- Spd (liver) [1, 3]: 281 ± 107^a pmoles/mg tissue wet weight
- Spm (liver) [1, 3]: 40 ± 24^a pmoles/mg tissue wet weight
- hepatic SSAT activity ([1]; transgenic rats, single dose 3 h prior to partial hepatectomy, 24 h postoperatively): 7520±3000 pmol/mg/10 min
- thymidine incorporation (DNA synthesis) ([2]; SSAT transgenic rats, 24 h after partial hepatectomy, 5 mg/kg 20 h and 4 h before): only insignificantly increased DNA synthesis
- stimulation of DNA synthesis (thymidine incorporation) [2, 4]: about 10 fold
- liver weight gain ([2]; non-transgenic rats, 24 h after partial hepatectomy): no effect on the weight gain
- PCNA-positive hepatocytes ([2]; syngenic rats, 24 h postoperatively with the analogue): 9.8±1.5%
- PCNA-positive hepatocytes ([2]; transgenic rats, 24 h postoperatively with methylspermidine): 25.9±4.9%
- PCNA labeling index ([2]; syngenic livers, 24 h after partial hepatectomy): did not change PCNA labeling index
- PCNA-positive cells ([2]; transgenic liver, 24 h after partial hepatectomy, from about 1%): more than 40%
- liver weight ([2]; transgenic rats, 24 h after partial hepatectomy): significantly increased the organ weight
